Assay results taken from publication PMC12010937, “Evaluation of FXR Activity in Pollutants Identified in Sewage Sludge and Subsequent in Vitro and in Vivo Characterization of Metabolic Effects of Triphenyl Phosphate” (Environmental Health Perspectives, 2025).
Like-named read-outs stand apart in the source and are kept apart here.

Tested on: C57BL/6N mice
Settings: TPHP-H group, liver
[1] = adduct [M+Na]+, first of two TG 52:3 lines
[2] = adduct [M+Na]+, second of two TG 52:3 lines

Compound: O=P(Oc1ccccc1)(Oc1ccccc1)Oc1ccccc1 [TPHP, triphenyl phosphate]
- Z-score of CAR 6:0 (adduct [M+H]+): 0.97
- Z-score of CAR 10:0 (adduct [M+H]+): 0.72
- Z-score of CAR 12:0 (adduct [M+H]+): 0.32
- Z-score of CAR 16:2 (adduct [M+H]+): 1.03
- Z-score of CAR 18:2 (adduct [M+H]+): 1.01
- Z-score of CAR 18:4 (adduct [M+H]+): 0.35
- Z-score of CAR 20:4 (adduct [M+H]+): 0.29
- Z-score of NAE 14:0 (adduct [M+H]+): -0.67
- Z-score of NAE 20:5 (adduct [M+H]+): -0.01
- Z-score of PC 40:6 (adduct [M+H]+): -0.91
- Z-score of PS 36:4 (adduct [M+H]+): 0.46
- Z-score of SM 27:5;O2 (adduct [M+H]+): 0.61
- Z-score of SM 28:3;O3 (adduct [M+H]+): 0.70
- Z-score of SM 31:3;O3 (adduct [M+H]+): -0.94
- Z-score of SM 41:2;O2 (adduct [M+H]+): 0.44
- average intensity of CAR 6:0 (adduct [M+H]+): 3598107
- average intensity of CAR 10:0 (adduct [M+H]+): 1728654
- average intensity of CAR 12:0 (adduct [M+H]+): 2142093
- average intensity of CAR 16:2 (adduct [M+H]+): 3030917
- average intensity of CAR 18:2 (adduct [M+H]+): 20111001
- average intensity of CAR 18:4 (adduct [M+H]+): 9217007
- average intensity of CAR 20:4 (adduct [M+H]+): 30801597
- average intensity of NAE 14:0 (adduct [M+H]+): 23845
- average intensity of NAE 20:5 (adduct [M+H]+): 31668356
- average intensity of PC 40:6 (adduct [M+H]+): 6977163
- average intensity of PS 36:4 (adduct [M+H]+): 1402007
- average intensity of SM 27:5;O2 (adduct [M+H]+): 18765822
- average intensity of SM 28:3;O3 (adduct [M+H]+): 1926974
- average intensity of SM 31:3;O3 (adduct [M+H]+): 284040
- average intensity of SM 41:2;O2 (adduct [M+H]+): 8959905
- Z-score of BMP 25:4 (adduct [M+NH4]+): -0.92
- Z-score of BMP 30:5 (adduct [M+NH4]+): -0.72
- Z-score of BMP 38:4 (adduct [M+NH4]+): -0.80
- Z-score of PG 21:2 (adduct [M+NH4]+): -0.95
- Z-score of PI 39:10 (adduct [M+NH4]+): -0.92
- Z-score of TG 48:11 (adduct [M+NH4]+): -0.82
- Z-score of TG 55:4 (adduct [M+NH4]+): 1.02
- average intensity of BMP 25:4 (adduct [M+NH4]+): 4738753
- average intensity of BMP 30:5 (adduct [M+NH4]+): 17597
- average intensity of BMP 38:4 (adduct [M+NH4]+): 940807
- average intensity of PG 21:2 (adduct [M+NH4]+): 816725
- average intensity of PI 39:10 (adduct [M+NH4]+): 61034
- average intensity of TG 48:11 (adduct [M+NH4]+): 5429634
- average intensity of TG 55:4 (adduct [M+NH4]+): 11320635
- Z-score of Cer 42:1;O2 (adduct [M+Na]+): -0.92
- Z-score of Cer 64:6;O2 (adduct [M+Na]+): 0.66
- Z-score of DG 19:1 (adduct [M+Na]+): -0.58
- Z-score of DG 26:5 (adduct [M+Na]+): -0.58
- Z-score of DG 26:6 (adduct [M+Na]+): -0.75
- Z-score of PC 29:5 (adduct [M+Na]+): -0.84
- Z-score of PC 38:6 (adduct [M+Na]+): -0.76
- Z-score of PC 42:9 (adduct [M+Na]+): -0.79
- Z-score of PS 40:7 (adduct [M+Na]+): 0.85
- Z-score of TG 52:2 (adduct [M+Na]+): 0.76
- Z-score of TG 52:4 (adduct [M+Na]+): 0.88
- average intensity of Cer 42:1;O2 (adduct [M+Na]+): 679331
- average intensity of Cer 64:6;O2 (adduct [M+Na]+): 17434974
- average intensity of DG 19:1 (adduct [M+Na]+): 4218
- average intensity of DG 26:5 (adduct [M+Na]+): 1190306
- average intensity of DG 26:6 (adduct [M+Na]+): 269918
- average intensity of PC 29:5 (adduct [M+Na]+): 1903378
- average intensity of PC 38:6 (adduct [M+Na]+): 3451074
- average intensity of PC 42:9 (adduct [M+Na]+): 130359
- average intensity of PS 40:7 (adduct [M+Na]+): 5213900
- average intensity of TG 52:2 (adduct [M+Na]+): 10933392
- average intensity of TG 52:4 (adduct [M+Na]+): 3390540
- Z-score of TG 52:3 [1]: 0.89
- average intensity of TG 52:3 [1]: 1451015
- Z-score of TG 52:3 [2]: 0.90
- average intensity of TG 52:3 [2]: 11832628
- Z-score of Cer 40:1;O2 (adduct [M-H]-): -0.86
- Z-score of Cer 41:1;3O(2OH) (adduct [M-H]-): -0.76
- Z-score of Cer 42:1;3O(2OH) (adduct [M-H]-): -0.75
- Z-score of Cer 43:1;3O(2OH) (adduct [M-H]-): -0.75
- Z-score of FA 10:1 (adduct [M-H]-): -0.63
- Z-score of FA 14:2 (adduct [M-H]-): 0.87
- Z-score of FA 16:2;O (adduct [M-H]-): 0.12
- Z-score of FA 19:2;O2 (adduct [M-H]-): 0.47
- Z-score of PG 34:2 (adduct [M-H]-): -0.59
- Z-score of PG 44:12 (adduct [M-H]-): -0.58
- Z-score of PI 36:3 (adduct [M-H]-): -0.62
- Z-score of PI 38:4 (adduct [M-H]-): 0.28
- average intensity of Cer 40:1;O2 (adduct [M-H]-): 112540
- average intensity of Cer 41:1;3O(2OH) (adduct [M-H]-): 650455
- average intensity of Cer 42:1;3O(2OH) (adduct [M-H]-): 109690
- average intensity of Cer 43:1;3O(2OH) (adduct [M-H]-): 95819
- average intensity of FA 10:1 (adduct [M-H]-): 124984
- average intensity of FA 14:2 (adduct [M-H]-): 2337946
- average intensity of FA 16:2;O (adduct [M-H]-): 718403
- average intensity of FA 19:2;O2 (adduct [M-H]-): 6586718
- average intensity of PG 34:2 (adduct [M-H]-): 89164
- average intensity of PG 44:12 (adduct [M-H]-): 16526
- average intensity of PI 36:3 (adduct [M-H]-): 224637
- average intensity of PI 38:4 (adduct [M-H]-): 36494581
